Source: PMC4554983 (Bioorganic & medicinal chemistry, 2015)
In brackets after ≈: the same amount, converted by molar mass.

What was measured:
[1] = test system: Candida albicans (WTBF-50); assay: Antifungal activity assay; assay type: cell-based
[2] = test system: Cryptococcus neoformans Cn18 (WTBF-106); assay: Antifungal activity assay; assay type: cell-based; conditions: MIC ratio versus P2
C. albicans = assay: Time kill assays; assay type: cell-based, Candida albicans

SMILES: C[C@@H]1[C@H](O)[C@@H](C)/C=C/C=C/C=C/C=C/C=C/C=C/C=C/[C@H](O[C@@H]2O[C@H](C)[C@@H](O)[C@H](N)[C@@H]2O)C[C@@H]2O[C@](O)(C[C@@H](O)C[C@@H](O)[C@H](O)CC[C@@H](O)C[C@@H](O)CC(=O)O[C@H]1C)C[C@H](O)[C@H]2C(=O)O [AMB, Amphotericin B, reference compound]
- MIC ([1]; Candida albicans): 0.125 µg/mL (≈ 0.135 µM)

SMILES: CC1CNC(c2ccc3cc(-c4ccc(-c5cc6ccc(C7=NC(C)CN7)cc6[nH]5)cc4)[nH]c3c2)=N1.O=C(O)C(F)(F)F (centres unmarked) [Compound P9]
- fold more potent than P2 against Cryptococcus neoformans [2]: 6 fold

SMILES: O=C(O)C(F)(F)F.c1cc2cc(-c3ccc(-c4cc5ccc(C6=NCCCN6)cc5[nH]4)cc3)[nH]c2cc1C1=NCCCN1 [Compound P10]
- time to reduce viable cells below the limit of detection (C. albicans; 2× the MIC): ≤ 8 h

SMILES: CC(=O)O.c1cc2cc(-c3ccc(-c4ccn5cc(C6=NCCCN6)nc5c4)cc3)[nH]c2cc1C1=NCCCN1 [Compound P33]
- fold more potent than P35 against Candida spp. ([1]; MIC ratio versus P35): > 10 fold

SMILES: CC(=O)O.c1cc2cc(-c3ccc(-c4ccc5cc(C6=NCCCN6)oc5c4)cc3)[nH]c2cc1C1=NCCCN1 [Compound P34]
- fungicidal activity relative to positive control (C. albicans; 2× the MIC and 4× the MIC, versus AMB at 4× the MIC): comparable to that of AMB
